For one data set, the target named is T1, CES2 (Homo sapiens, UniProt O00748).
T1 sequence (O00748 27-559): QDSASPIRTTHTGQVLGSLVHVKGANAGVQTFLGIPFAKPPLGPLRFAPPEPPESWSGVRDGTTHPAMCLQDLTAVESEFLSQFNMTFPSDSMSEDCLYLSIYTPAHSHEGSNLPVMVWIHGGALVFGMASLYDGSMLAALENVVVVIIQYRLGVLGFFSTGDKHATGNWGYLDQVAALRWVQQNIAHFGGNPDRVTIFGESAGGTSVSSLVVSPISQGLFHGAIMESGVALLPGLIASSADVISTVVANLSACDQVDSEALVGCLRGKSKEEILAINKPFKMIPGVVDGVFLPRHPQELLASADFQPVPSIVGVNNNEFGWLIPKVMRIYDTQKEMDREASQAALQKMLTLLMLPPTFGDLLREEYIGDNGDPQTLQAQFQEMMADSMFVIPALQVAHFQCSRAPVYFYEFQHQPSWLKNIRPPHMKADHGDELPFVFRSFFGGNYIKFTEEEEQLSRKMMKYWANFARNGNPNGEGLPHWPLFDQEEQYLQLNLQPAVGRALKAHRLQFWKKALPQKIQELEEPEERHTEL
The experiment in a line: IMMH-010 hydrolysis by recombinant human CES2. The data set is classed as in vitro ADME. The arrangement: purchased Cypex Ltd. (Dundee, United Kingdom). To be noted: 10 μM, CES2 0.1 mg/mL, 15 min, 37 °C. As to the method: To verify the role of CES1, CES2, and AADAC in human metabolism of […]-010 (10 μM) was incubated individually with recombinant human CES1, CES2, and AADAC (0.1 mg protein/mL) at 37 °C for 15 min. Lidocaine (500 μM), CPT-11 (2 μM), and phenacetin (1 mM), which are substrates of CES1, CES2, and AADAC, were used as positive controls.

Data set [1] in a line: Metabolism in dog liver S9 fractions. In kind it is in vitro ADME. Here is the method: IMMH-010 metabolism was compared in human, monkey, dog, and rat liver S9 homogenates. IMMH-010 (10 μM) was incubated with liver S9 homogenate protein (0.5 mg protein/mL) and a reduced nicotinamide adenine dinucleotide phosphate (NADPH) regenerating system in a final volume of 0.2 mL Tris-HCl buffer (50 mM, pH 7.4) containing 5 mM MgCl2. The reactions were performed in triplicate. After 2 min of preincubation at 37 °C, reactions were initiated by the addition of IMMH-010 (10 μM). The samples were collected 0, 5, 10, and 20 min after incubation, 2 volumes of acetonitrile were added to terminate the reaction. After vortexing and centrifugation, IMMH-010, YPD-29B, M3, and M4 in the supernatant were analyzed by LC-MS/MS.
All statistics were calculated using GraphPad Prism 8.0 software (San Diego, CA, USA) designed for one-way ANOVA. Pharmacokinetic parameters were calculated with a non-compartmental analysis using WinNonlin Version 6.3 (Pharsight, Mountain View, CA, USA). ADMET predictor V10.0 (Simulations Plus, Inc., Lancaster, CA, USA) and Microsoft Excel (Microsoft, Redmond, WA, USA) were used to process the data (i.e., half-life (t1/2) and hepatic clearance (CLhep) determination). Data were expressed as means ± standard deviations (SD). Results were considered statistically significant if the p-value <0.05, <0.01 and <0.001.

The structures appear in SMILES notation.

On to `CC(C)OC(=O)[C@H](CO)NCc1cc(Cl)c(OCc2cccc(-c3ccccc3)c2Br)cc1OCc1cccnc1` [IMMH-010], for which the “remaining amount of IMMH-010” value on CES2 is recorded as 94.2%. Also, the “estimated CLhep” value in data set [1] (from dog liver S9) is 2.18 L/h/kg. In data set [1] (pH 7.4, dog liver S9 0.5 mg protein/mL, 10 μM, NADPH), this compound yielded a half-life at 10 μM of 4.9 min.

A word on the half-life: it is the time in which the quantity being followed falls by half.

The values are drawn from paper PMC8143347, “Metabolism and Interspecies Variation of IMMH-010, a Programmed Cell Death Ligand 1 Inhibitor Prodrug” (Pharmaceutics, 2021).
